Blank lines part the entries; values can stand above or below the compound they belong to. Where a SMILES comes first, the peptide text is derived from it. [ ]: non-standard residue; d: D form. The star is where a group is joined. 5TAMRA = CN(C)c1ccc2c(c1)Oc1cc(N(C)C)ccc1C21OC(=O)c2cc(C(=O)*)ccc21
What was measured:
[1] = Stability of TMR-labeled peptides in mouse plasma; type: in vitro ADME; settings: 37°C; for susceptibility to mouse plasma proteases (in words): incubated with fresh mouse plasma, HPLC
Procedure: Mouse blood was collected in serum-separation tubes containing heparin sodium and immediately centrifuged at 10,000 rpm for 10 min. Fresh mouse plasma was then removed and stored for further analysis. Then, 200 µg of TMR-RIF7 and TMR-IF7 was dissolved in 10 µl DMSO, added to 1 ml of the fresh plasma, and incubated at 37°C. A 50 µl aliquot was withdrawn from the incubation mixture at the time indicated, added to 450 µl acetonitrile: water (50∶50) containing 0.1% TFA, centrifuged at 5,000 rpm for 10 min to remove Insoluble material, and then the supernatant was analyzed by HPLC as described previously in §2.2. Elution was monitored (excitation λ = 543 nm; emission λ = 570 nm). The relative amount of TMR-RIF7 and TMR-IF7 that remained in the mouse plasma […].

A549 cells = test: Cell binding after pre-incubation in complete medium (10% FBS); type: cell-based, human; settings: 10 min; for fluorescent intensity after incubation of peptide with complete medium prior to cells: complete medium containing 10% FBS, 37°C, then A549 cells, IF7 p<0.001, RIF7 p<0.01
Procedure: A549 cells were seeded (5×10^3 cells/well) in 96-well plates (Corning Coaster, Tokyo, Japan) and incubated for 12 h. Cells were incubated with serum free medium (special Dulbecco's modified Eagle medium supplemented with 100 U/mL penicillin, […] streptomycin) containing TMR-RIF7, TMR-IF7, or TMR-RQ7 (TMR conjugated to reverse IF7: sequence RQWLLFI, composed of L-amino acids) at the concentration of 10 µg/ml. In addition, to verify the stability of modified peptides, TMR-IF7 and TMR-RIF7 were incubated with complete medium (special Dulbecco's modified Eagle medium supplemented with 10% heat-inactivated FBS, 100 U/mL penicillin, […] streptomycin) for 10 min at 37°C in advance of serum free medium. The solution was removed and cells were washed three times with ice-cold PBS (pH 7.4) and then visualized under a fluorescent microscope (Leica DMI 4000B, Germany).
(§1) For direct competition studies, non-labeled IF7 or RIF7 (10 µg/ml) was added to each well and incubated for 30 min. TMR-IF7 or TMR-RIF7 (10 µg/ml) were then added and incubated at 37°C for 30 min. The solution was removed and the cells were washed three times with ice-cold PBS (pH 7.4) and then visualized under a fluorescent microscope (Leica DMI 4000B, Germany). The fluorescent signal intensity of each well was quantified using an F-7000 FL spectrophotometer.

Anxa1 [2] = biological target: T1, Anxa1 (Mus musculus, UniProt P10107); test: In vivo inhibition assay with anti-Anxa1 antibody in pulmonary tumor-bearing mice; settings: 20 µg rabbit IgG 15 min prior to peptide
T1 construct: IF7 or RIF7 targets tumors through Anxa1 expressed on endothelial cell surfaces; from tissue; host or cells: pulmonary tumour vasculature of tumour-bearing mice (in vivo)
T1 sequence (P10107 1-346): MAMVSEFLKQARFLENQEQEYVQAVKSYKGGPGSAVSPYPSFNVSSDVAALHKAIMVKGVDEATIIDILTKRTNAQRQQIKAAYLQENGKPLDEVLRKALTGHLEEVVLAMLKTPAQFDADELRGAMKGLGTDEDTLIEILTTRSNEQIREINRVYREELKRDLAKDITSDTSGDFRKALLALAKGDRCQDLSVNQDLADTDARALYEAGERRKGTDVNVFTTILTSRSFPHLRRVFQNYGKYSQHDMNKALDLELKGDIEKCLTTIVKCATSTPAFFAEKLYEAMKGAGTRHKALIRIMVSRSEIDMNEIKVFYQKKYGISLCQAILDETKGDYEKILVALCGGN
Procedure: (§2) Ex vivo real-time fluorescence imaging analysis was used to evaluate the tumor targeting activity of TMR-RIF7. One week after inoculation, TMR-IF7 or TMR-RIF7 (200 µl, 0.5 mg/ml in 5% glucose solution) was injected through the tail vein of mice bearing pulmonary tumors. The mice were then sacrificed and perfused intracardially with normal saline to compare tissue and tumor distribution of TMR-RIF7. Tumor-bearing lungs and other major organs, including hearts, livers, spleens and kidneys were removed, washed with saline, and imaged using a Cambridge Research & Instrumentation (CRi) in vivo imaging system (CRi, MA, USA). When subcutaneous KBv tumors were grown to a palpable size (about 8–10 mm diameter), the same process was carried out to evaluate tissue and tumor distribution of TMR-RIF7 in subcutaneous tumor-bearing nude mice. Next, 20 µg of each rabbit anti-Anxa1 antibody (N-19) or rabbit IgG antibody was injected 15 min prior to TMR-IF7 or TMR-RIF7 injection for inhibition assays in pulmonary tumor-bearing mice. Then, resulting images (spectral cube, containing a spectrum at every pixel) were loaded into Maestro™ 2.10 software and analyzed.

Anxa1 [3] = biological target: T2, Anxa1 (Homo sapiens, UniProt P04083); test: Inhibition assay of cell binding with anti-Anxa1 antibody; type: cell-based; settings: A549 cells; for influence of normal rabbit IgG on binding capacity to cells: normal rabbit IgG 4 µg per well 30 min prior to peptide
T2 construct: endogenous in cells; host or cells: A549 cells
T2 sequence (P04083 1-346): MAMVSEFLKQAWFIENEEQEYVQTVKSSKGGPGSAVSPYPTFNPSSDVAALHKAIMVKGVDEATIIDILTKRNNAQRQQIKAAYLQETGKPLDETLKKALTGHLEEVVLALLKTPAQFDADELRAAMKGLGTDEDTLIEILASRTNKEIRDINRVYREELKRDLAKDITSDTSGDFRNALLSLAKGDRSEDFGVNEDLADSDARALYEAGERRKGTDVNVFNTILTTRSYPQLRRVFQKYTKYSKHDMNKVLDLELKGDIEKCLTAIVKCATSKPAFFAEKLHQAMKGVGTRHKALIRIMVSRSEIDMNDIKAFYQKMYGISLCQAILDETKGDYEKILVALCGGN
Procedure: For inhibition assays, anti-Anxa1 antibody or control normal rabbit IgG (4 µg each) was added to each well and incubated for 30 min. TMR-IF7 or TMR-RIF7 (10 µg/ml) were then added and incubated at 37°C for 30 min. The solution was removed and cells were washed three times with ice-cold PBS (pH 7.4) and then visualized under a fluorescent microscope (Leica DMI 4000B, Germany).
as §1

tumor = settings: mice; cited from earlier work
Source text: Hatakeyama's laboratory used peptide-displaying phage technology to generate a carbohydrate mimetic peptide with the consensus sequence IFLLWQR, which was designated IF7 [14]. IF7 has a special affinity for the tumor vasculature and functions as an efficient anticancer drug delivery vehicle, slowing tumor growth. Experiments confirmed that IF7 specifically binds to a 15-kDa fragment of annexin1 (Anxa1). Anxa1 is a member of the large annexin family of cytosolic proteins with calcium-dependent associations with cell membranes.

Anxa1 [4] = biological target: T2, Anxa1; test: Direct competition study with non-labeled peptide; type: cell-based; settings: A549 cells
Procedure: as §1

[5] = Systemic distribution in dissected organs, ex vivo imaging; set-up: species or system mouse; settings: for organ distribution of TMR-labeled peptide: major organs collected at 30 min and 4 h after i.v. injection
Procedure: as §2

lung melanoma (B16-F10) = type: in vivo, mouse
Procedure: as §2, with “B16-F10 cells (7.5×10^5 cells suspended in 250 µl PBS) were injected intravenously into BALB/c mice to establish a pulmonary metastatic melanoma model. Specifically, KBv cells (5×10^6cells suspended in […] cell culture medium) were inoculated subcutaneously into the right hind legs of nude mice to produce a subcutaneous KBv xenograft model. Ex” for “Ex”

[6] = test system: subcutaneous KBv xenografts; test: Ex vivo fluorescence imaging, subcutaneous KBv xenograft model; type: in vivo; settings: nude mice, both 30 min and 4 h after i.v. injection
Procedure: as §2, with “B16-F10 cells (7.5×10^5 cells suspended in 250 µl PBS) were injected intravenously into BALB/c mice to establish a pulmonary metastatic melanoma model. Specifically, KBv cells (5×10^6cells suspended in […] cell culture medium) were inoculated subcutaneously into the right hind legs of nude mice to produce a subcutaneous KBv xenograft model. Ex” for “Ex”, “Next, 20 µg of each rabbit anti-Anxa1 antibody (N-19) or rabbit IgG antibody was injected 15 min prior to TMR-IF7 or TMR-RIF7 injection for inhibition assays in pulmonary tumor-bearing mice.” left out

[7] = TMR-labeled peptide 10 µg/ml, 37°C, 30 min, F-7000 FL spectrophotometer, mean ± SD, n = 3

Compound: CC[C@H](C)[C@H](NC(=O)c1ccc2c(c1)C(=O)OC21c2ccc(N(C)C)cc2Oc2cc(N(C)C)ccc21)C(=O)N[C@@H](Cc1ccccc1)C(=O)N[C@@H](CC(C)C)C(=O)N[C@@H](CC(C)C)C(=O)N[C@@H](Cc1c[nH]c2ccccc12)C(=O)N[C@@H](CCC(N)=O)C(=O)N[C@@H](CCCNC(=N)N)C(=O)O [TMR-IF7] (5TAMRA-IFLLWQR-OH)
metabolised at 0.5 h, 198 µg/mL ([1]; fresh heparinised mouse plasma, fresh heparin mouse plasma, 200 µg peptide in 10 µl DMSO per 1 ml plasma, within 30 min, HPLC with fluorescence detection (ex 543 nm, em 570 nm), mean of at least three experiments, read-out: peptide degraded in mouse plasma): > 80%
susceptibility to mouse plasma proteases (in words) [1]: rapidly degraded

Compound: CC[C@@H](C)[C@@H](NC(=O)[C@@H](Cc1ccccc1)NC(=O)[C@@H](CC(C)C)NC(=O)[C@@H](CC(C)C)NC(=O)[C@@H](Cc1c[nH]c2ccccc12)NC(=O)[C@@H](CCC(N)=O)NC(=O)[C@@H](CCCNC(=N)N)NC(=O)c1ccc2c(c1)C(=O)OC21c2ccc(N(C)C)cc2Oc2cc(N(C)C)ccc21)C(=O)O [TMR-RIF7] (5TAMRA-[dR][dQ][dW][dL][dL][dF][dI]-OH)
resistance to protease in complete medium (qualitative imaging) (A549 cells; complete medium with 10% FBS, 37°C prior to incubation with A549 cells): more resistant to protease in complete medium than TMR-IF7
remaining at 6 h, 198 µg/mL ([1]; fresh heparinised mouse plasma, fresh heparin mouse plasma, 200 µg peptide in 10 µl DMSO per 1 ml plasma, within 6 h, HPLC with fluorescence detection (ex 543 nm, em 570 nm), mean of at least three experiments, read-out: peptide remaining intact in mouse plasma): ~70%
susceptibility to mouse plasma proteases (in words) [1]: did not change significantly

intensity of fluorescence, cells treated with peptide only (Anxa1 [3]; [7]): 19.32±0.89
intensity of fluorescence, cells incubated with anti-Anxa1 antibody prior to peptide (Anxa1 [3]; anti-Anxa1 antibody 4 µg per well 30 min, then TMR-labeled peptide 10 µg/ml, 37°C, 30 min, mean ± SD, n = 3): 5.26±1.97
influence of normal rabbit IgG on binding capacity to cells (Anxa1 [3]): little influence
fluorescent intensity after incubation of peptide with complete medium prior to cells (A549 cells): decreased significantly
fluorescent intensity, cells treated with peptide only (competition assay) (Anxa1 [4]; [7]): 20.31±1.78
fluorescent intensity, cells pre-incubated with non-labeled competitor (Anxa1 [4]; non-labeled peptide 10 µg/ml 30 min, then TMR-labeled peptide 10 µg/ml, 37°C, 30 min, mean ± SD, n = 3): 4.26±1.96
Compound: IFLLWQR [IF7, parent peptide]
effect of normal rabbit IgG injected prior to peptide (Anxa1 [2]): did not alter targeted distribution in the lung
time for which the tumor signal remained high (tumor): 40 min
time to detection in the tumor after injection (tumor): ≤ 1 min
time to plateau in the tumor (tumor): 9 min
organ distribution of TMR-labeled peptide [5]: distributed mainly in liver, kidney and tumor tissue
mean fluorescent intensity in the lung tumor region (lung melanoma (B16-F10); 12 h post intravenous injection, mean ± SD, n = 3): hardly detectable

binding to Anxa1 inhibited by anti-Anxa1 antibody (Anxa1 [3]; anti-Anxa1 antibody 4 µg per well 30 min prior to TMR-labeled peptide 10 µg/ml): ~70%
influence of normal rabbit IgG on binding capacity to cells (Anxa1 [3]): little influence
fluorescent intensity after incubation of peptide with complete medium prior to cells (A549 cells): decreased significantly
binding to Anxa1 inhibited by non-labeled peptide (Anxa1 [4]; non-labeled peptide 10 µg/ml 30 min prior to TMR-labeled peptide 10 µg/ml): ~67%
Compound: RQWLLFI [RIF7]
effect of normal rabbit IgG injected prior to peptide (Anxa1 [2]): did not alter targeted distribution in the lung
fluorescent intensity in KBv tumors compared to IF7-treated mice [6]: greater fluorescent intensity
fluorescent signals in organs compared with the other peptide ([5]; 30 min and 4 h after i.v. injection): stronger fluorescent signals at both time points
organ distribution of TMR-labeled peptide [5]: distributed mainly in liver, kidney and tumor tissue
signal intensity in lung tumor relative to IF7 (lung melanoma (B16-F10); after 4 h, mean fluorescent intensities in lung tumor region, n = 3): ~2.3 fold
fluorescent signal in lung melanoma compared with the IF7 group (lung melanoma (B16-F10); all survey points (30 min, 4, 8, 12 h)): stronger fluorescent signal

Compound: RQWLLFI [RQ7, control peptide]
signals in the lung ([5]; different time points after i.v. injection, control peptide): remained at background levels

— paper PMC3846562, “Retro-Inverso Carbohydrate Mimetic Peptides with Annexin1-Binding Selectivity, Are Stable In Vivo, and Target Tumor Vasculature” (PLoS ONE, 2013)
